Data: a melting point compilation (Tetko et al.; mined from patent text by program, amines drawn as free bases though some values may be those of a salt)

Row | Structure (SMILES) | melting point [°C]
1 | c1ccn(Nc2ccncn2)c1 | 134 to 136
2 | OC1c2cc(OCc3ccc4ccccc4n3)ccc2OCC1Oc1ccccc1 (stereo not drawn) | 151 to 153
3 | Cc1cc(OCCc2nc(-c3ccc(-c4ccccc4)cc3)oc2C)ccc1OC(C)(C)C(=O)O | 122 to 123
4 | CC(C)CCCC(C)C1CCC2C3CC=C4CC(NC(=O)CCNC(=O)CCCCCNc5ccc([N+](=O)[O-])cc5[N+](=O)[O-])CCC4(C)C3CCC12C (stereo not drawn) | 197 to 198
5 | COC1C(OC(=O)N2CCOCC2)CCC2(CO2)C1C1(C)OC1CCC(C)C (stereo not drawn) | 64 to 65
6 | CNC(=O)C(=O)c1cc(Cl)cc(C)c1NC(=O)c1cc(Br)nn1-c1ncccc1Cl | 246 to 247
7 | CC(C)(C)c1cc(C=C2SC(NCO)=NC2=O)cc(C(C)(C)C)c1O | 177 to 179
8 | CNC(=O)C(c1ccccc1F)N(C(=O)CNC(=O)Nc1cccc(C)c1)c1cccc(OC)c1 (stereo not drawn) | 110
9 | CC(C)(NC(=O)c1ccc([N+](=O)[O-])cc1)C(=O)CCl | 181 to 182
10 | CC1=C(C(=O)CCl)C2(C)CCC3C(CC=C4CC(O)CCC43C)C2C1 (stereo not drawn) | 170 to 172
11 | CC1(C)CC(=O)C2=C(C1)NC1=C(C(=O)CC(C)(C)C1)C2c1cccc(Oc2cc(Cl)cc(Cl)c2)c1 | 254 to 255
12 | COC(=O)CCC#Cc1cc(Cl)ccc1N | 67
13 | N#Cc1ccc(/C=C/C=C/C=O)c(F)c1 | 174 to 177
14 | COC(=O)C(=Cc1cccc([N+](=O)[O-])c1)C(=O)OC | 78 to 80
15 | CCCCOc1cc([N+](=O)[O-])c(OCCCC)cc1N=NN1CCOCC1 | 79 to 81
16 | O=C(O)Cn1cc2c(=O)n3c(nc2n1)SCC3 | 276
17 | N#CCCNC(=O)c1cccc(-c2ccc3c(c2)N(CCc2cccc(C(F)(F)F)c2)CC3)c1 | 197 to 198
18 | Cc1nnc(-c2ccc3ccn(-c4ccc(S(C)(=O)=O)cc4)c3c2)o1 | 228 to 229
19 | O=C(Nc1cc(-n2cccn2)nc(-c2ccco2)n1)OCc1cccnc1 | 254 to 256
20 | CCOC1(OCC)CCC(C#N)(CC#N)CC1 | 74 to 75
21 | N#Cc1ccc(Oc2ccc(CC(=O)O)cc2)cc1 | 126 to 128
22 | C#Cc1ccnc(-c2cc([N+](=O)[O-])c(-c3cc(C#C)ccn3)cc2N)c1 | 154 to 160

Results, then the compound that gave them:

Row | melting point [°C] | Structure (SMILES)
23 | 73 to 75 | CC(=O)OCCc1cc2c(s1)CCC1CC(=O)N(c3ccc(C)cc3)N=C21 (stereo not drawn)
24 | 300 to 302 | CC(=O)Nc1cccc(-c2[nH]c3cccc4c3c2CCNC4=O)c1
25 | 169 to 174 | Cn1ccc(=O)c(OCc2ccccc2)c1C(O)c1cccnc1 (stereo not drawn)
26 | 187 to 188 | CN(C)C(=O)C1CCCN(c2cc3ccccc3c(=O)[nH]2)C1 (stereo not drawn)
27 | 170 to 172 | CN1CCN(c2cc(Cl)c3c(c2)N(Cc2ccccc2)C(=O)N(Cc2cccc(O)c2)S3(=O)=O)CC1
28 | > 200 | CN(C)CCCCCCNC(=O)c1ccc(-c2cnc3c(c2)N(Cc2ccccc2)C(=O)CN3)cc1
29 | 187 to 189 | CC(C)(C)OC(=O)N1CCN(c2ccc(NC(=O)Nc3cc(Cl)ccc3N)cc2)CC1
30 | > 300 | CC1(C)CC(=O)C2=C(C1)NC1=C(C(=O)CC(C)(C)C1)C2c1ccc(Cl)cc1Cl
31 | 157 to 159 | C#CCN1C(=O)c2ccccc2C1O (stereo not drawn)
32 | 197 to 199 | Cc1sc(N2C(=O)c3ccccc3C2=O)c(C(=O)c2ccc(Cl)cc2)c1CN(C)Cc1ccccc1
33 | 224 to 226 | Cn1c(-c2ccc3ccccc3c2)nnc1S(C)=O (stereo not drawn)
34 | 121 to 123 | O=C1Nc2ccccc2Nc2ccccc21
35 | 103 to 105 | COc1cc(C(C)=O)ccc1OCCCN1CCC(c2noc3ccc(F)cc23)CC1
36 | 94 | CC(=O)Nc1ccc(OC(F)(F)F)cc1-c1ccccc1
37 | 174 to 176 | O=C1N(Cc2nsc(Cl)n2)c2cccc(Cl)c2C12COc1cc3c(cc12)OCO3 (stereo not drawn)
38 | 145 to 146 | CCOC(=O)C1=C(COCCN=[N+]=[N-])NC(C)=C(C(=O)OC)C1c1ccccc1Cl (stereo not drawn)
